Laboratory results from ChEMBL document CHEMBL1201862, “PubChem BioAssay data set” (2004).
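48-hour exposure; five concentrations; linearly interpolated endpoints. At the GI50, growth is halved.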 Activity calls are given as the source filed them. Cut-off read from the data, not from the text of the source: active = GI50 up to about 1.1 µM and inactive = higher. Square brackets hold non-standard residues; d marks the D form. Peptide text beside a SMILES is read from it. * marks the point of attachment. Boc = CC(C)(C)OC(=O)*; Lac = C[CH](O)C(=O)O; OBn = c1ccc(CO*)cc1

Assays:
Test in all cases: NCI tumour cell line growth inhibition, 48 h
786-0 = tested on: 786-0
A498 = tested on: A498
A549 = tested on: A549
ACHN = tested on: ACHN
BT-549 = tested on: BT-549
CAKI-1 = tested on: CAKI-1
CCRF-CEM = tested on: CCRF-CEM
COLO 205 = tested on: COLO 205
DU-145 = tested on: DU-145
EKVX = tested on: EKVX
HCC 2998 = tested on: HCC 2998
HCT-116 = tested on: HCT-116
HCT-15 = tested on: HCT-15
HL-60 = tested on: HL-60
HOP-62 = tested on: HOP-62
HT-29 = tested on: HT-29
Hs-578T = tested on: Hs-578T
IGROV-1 = tested on: IGROV-1
K562 = tested on: K562
KM12 = tested on: KM12
LOX IMVI = tested on: LOX IMVI
M14 = tested on: M14
MCF7 = tested on: MCF7
MDA-MB-231 = tested on: MDA-MB-231
MDA-MB-435 = tested on: MDA-MB-435
MDA-N = tested on: MDA-N
MOLT-4 = tested on: MOLT-4
NCI-H226 = tested on: NCI-H226
NCI-H23 = tested on: NCI-H23
NCI-H460 = tested on: NCI-H460
NCI-H522 = tested on: NCI-H522
NCI/ADR-RES = tested on: NCI/ADR-RES
OVCAR-3 = tested on: OVCAR-3
OVCAR-4 = tested on: OVCAR-4
OVCAR-5 = tested on: OVCAR-5
OVCAR-8 = tested on: OVCAR-8
PC-3 = tested on: PC-3
RPMI-8226 = tested on: RPMI-8226
SF-295 = tested on: SF-295
SF-539 = tested on: SF-539
SK-MEL-28 = tested on: SK-MEL-28
SK-MEL-2 = tested on: SK-MEL-2
SK-MEL-5 = tested on: SK-MEL-5
SK-OV-3 = tested on: SK-OV-3
SN12C = tested on: SN12C
SNB-19 = tested on: SNB-19
SR = tested on: SR
SW-620 = tested on: SW-620
T47D = tested on: T47D
TK-10 = tested on: TK-10
U-251 = tested on: U-251
UACC-257 = tested on: UACC-257
UACC-62 = tested on: UACC-62
UO-31 = tested on: UO-31
HOP-92 = tested on: HOP-92
Malme-3M = tested on: Malme-3M
RXF 393 = tested on: RXF 393
SNB-75 = tested on: SNB-75

For `CN1C/C(=C\c2cccs2)C2=NN(c3ccccc3)C(c3cccs3)C2C1` (stereo not given), which GI50 (786-0) is on record?
Its GI50 is 3.49 µM (inactive).

What about the GI50 (A498) of the same molecule?
Its GI50 is > 27.3 µM (inactive).

And the GI50 (A549)?
Its GI50 is 7.33 µM (inactive).

What about the GI50 (ACHN) of the same molecule?
Its GI50 is > 34 µM (inactive).

What about the GI50 (BT-549) of the same molecule?
Its GI50 is 17.9 µM (inactive).

And the GI50 (CAKI-1)?
The GI50 was > 72.9 µM (inactive).

What about the GI50 (CCRF-CEM) of the same molecule?
Its GI50 is 2 µM (inactive).

What about the GI50 (COLO 205) of the same molecule?
The GI50 was 5.16 µM (inactive).

And the GI50 (DU-145)?
The GI50 was 5.33 µM (inactive).

And the GI50 (EKVX)?
Its GI50 is 14.7 µM (inactive).

What about the GI50 (HCC 2998) of the same molecule?
The GI50 was 6.21 µM (inactive).

And the GI50 (HCT-116)?
Its GI50 is 2.7 µM (inactive).

What about the GI50 (HCT-15) of the same molecule?
The GI50 was 3.78 µM.

What about the GI50 (HL-60) of the same molecule?
Its GI50 is 1.59 µM (inactive).

And the GI50 (HOP-62)?
The GI50 was 11.1 µM (inactive).

And the GI50 (HT-29)?
The GI50 was 3.14 µM (inactive).

And the GI50 (Hs-578T)?
The GI50 was > 100 µM (inactive).

What about the GI50 (IGROV-1) of the same molecule?
The GI50 was 4.06 µM (inactive).

What about the GI50 (K562) of the same molecule?
Its GI50 is 3.96 µM (inactive).

And the GI50 (KM12)?
Its GI50 is 4.35 µM (inactive).

What about the GI50 (LOX IMVI) of the same molecule?
Its GI50 is 5.08 µM (inactive).

What about the GI50 (M14) of the same molecule?
The GI50 was 3.91 µM (inactive).

What about the GI50 (MCF7) of the same molecule?
Its GI50 is 13.3 µM (inactive).

And the GI50 (MDA-MB-231)?
The GI50 was 21.9 µM (inactive).

What about the GI50 (MDA-MB-435) of the same molecule?
The GI50 was 1.61 µM (inactive).

And the GI50 (MDA-N)?
Its GI50 is 1.59 µM (inactive).

And the GI50 (MOLT-4)?
The GI50 was 3.4 µM (inactive).

What about the GI50 (NCI-H226) of the same molecule?
Its GI50 is > 100 µM (inactive).

And the GI50 (NCI-H23)?
Its GI50 is > 100 µM (inactive).

What about the GI50 (NCI-H460) of the same molecule?
The GI50 was 3.52 µM (inactive).

What about the GI50 (NCI-H522) of the same molecule?
The GI50 was 3.43 µM (inactive).

And the GI50 (NCI/ADR-RES)?
Its GI50 is 3.77 µM (inactive).

And the GI50 (OVCAR-3)?
The GI50 was 2.79 µM (inactive).

What about the GI50 (OVCAR-4) of the same molecule?
The GI50 was 4.47 µM (inactive).

And the GI50 (OVCAR-5)?
The GI50 was > 100 µM (inactive).

And the GI50 (OVCAR-8)?
The GI50 was 10.5 µM (inactive).

And the GI50 (PC-3)?
The GI50 was 10.7 µM (inactive).

What about the GI50 (RPMI-8226) of the same molecule?
The GI50 was 3.59 µM (inactive).

And the GI50 (SF-295)?
Its GI50 is 4.95 µM (inactive).

And the GI50 (SF-539)?
Its GI50 is 17.4 µM (inactive).

And the GI50 (SK-MEL-28)?
Its GI50 is > 100 µM (inactive).

And the GI50 (SK-MEL-2)?
The GI50 was 25.5 µM (inactive).

What about the GI50 (SK-MEL-5) of the same molecule?
Its GI50 is 11.9 µM (inactive).

And the GI50 (SK-OV-3)?
The GI50 was > 73.3 µM (inactive).

What about the GI50 (SN12C) of the same molecule?
The GI50 was 4.39 µM (inactive).

And the GI50 (SNB-19)?
Its GI50 is 5.93 µM (inactive).

What about the GI50 (SR) of the same molecule?
Its GI50 is 1.71 µM (inactive).

What about the GI50 (SW-620) of the same molecule?
The GI50 was 4.6 µM (inactive).

What about the GI50 (T47D) of the same molecule?
The GI50 was 76 µM (inactive).

What about the GI50 (TK-10) of the same molecule?
The GI50 was 31.6 µM (inactive).

What about the GI50 (U-251) of the same molecule?
The GI50 was 12 µM (inactive).

What about the GI50 (UACC-257) of the same molecule?
The GI50 was 5.92 µM (inactive).

What about the GI50 (UACC-62) of the same molecule?
Its GI50 is > 100 µM (inactive).

And the GI50 (UO-31)?
Its GI50 is 50 µM (inactive).

With `CC(OC(=O)C(Cc1ccccc1)NC(=O)C(Cc1ccccc1)NC(=O)OC(C)(C)C)C(=O)OCc1ccccc1` (stereo not drawn) (Boc-Phe-Phe-[Lac]-OBn; configuration not given here) as the molecule, how does the GI50 (BT-549) read?
Its GI50 is > 100 µM (inactive).

What about the GI50 (CAKI-1) of the same molecule?
The GI50 was > 100 µM (inactive).

And the GI50 (CCRF-CEM)?
Its GI50 is > 100 µM (inactive).

And the GI50 (COLO 205)?
Its GI50 is > 100 µM (inactive).

And the GI50 (DU-145)?
Its GI50 is > 100 µM (inactive).

And the GI50 (HCC 2998)?
The GI50 was > 100 µM (inactive).

What about the GI50 (HCT-116) of the same molecule?
Its GI50 is > 100 µM (inactive).

And the GI50 (HCT-15)?
Its GI50 is over 100 µM.

And the GI50 (HL-60)?
The GI50 was > 100 µM (inactive).

What about the GI50 (HOP-62) of the same molecule?
The GI50 was > 100 µM (inactive).

And the GI50 (HOP-92)?
Its GI50 is > 100 µM (inactive).

And the GI50 (Hs-578T)?
The GI50 was > 100 µM (inactive).

What about the GI50 (IGROV-1) of the same molecule?
The GI50 was > 100 µM (inactive).

What about the GI50 (K562) of the same molecule?
The GI50 was > 100 µM (inactive).

And the GI50 (KM12)?
Its GI50 is > 100 µM (inactive).

What about the GI50 (M14) of the same molecule?
The GI50 was 87.1 µM (inactive).

What about the GI50 (MCF7) of the same molecule?
The GI50 was 17.8 µM (inactive).

What about the GI50 (MDA-MB-231) of the same molecule?
The GI50 was > 100 µM (inactive).

What about the GI50 (MDA-MB-435) of the same molecule?
Its GI50 is > 100 µM (inactive).

And the GI50 (MDA-N)?
The GI50 was > 100 µM (inactive).

What about the GI50 (MOLT-4) of the same molecule?
The GI50 was > 100 µM (inactive).

What about the GI50 (Malme-3M) of the same molecule?
The GI50 was > 100 µM (inactive).

What about the GI50 (NCI-H226) of the same molecule?
Its GI50 is > 100 µM (inactive).

And the GI50 (NCI-H23)?
The GI50 was > 100 µM (inactive).

What about the GI50 (NCI-H460) of the same molecule?
Its GI50 is > 100 µM (inactive).

And the GI50 (NCI-H522)?
The GI50 was > 100 µM (inactive).

And the GI50 (NCI/ADR-RES)?
Its GI50 is > 100 µM (inactive).

What about the GI50 (OVCAR-3) of the same molecule?
The GI50 was > 100 µM (inactive).

And the GI50 (OVCAR-5)?
Its GI50 is > 100 µM (inactive).

What about the GI50 (OVCAR-8) of the same molecule?
The GI50 was > 100 µM (inactive).

What about the GI50 (PC-3) of the same molecule?
The GI50 was > 100 µM (inactive).

What about the GI50 (RPMI-8226) of the same molecule?
Its GI50 is 94 µM (inactive).

What about the GI50 (RXF 393) of the same molecule?
The GI50 was > 100 µM (inactive).

And the GI50 (SF-295)?
The GI50 was > 100 µM (inactive).

What about the GI50 (SK-MEL-28) of the same molecule?
Its GI50 is > 100 µM (inactive).

And the GI50 (SK-MEL-2)?
The GI50 was > 100 µM (inactive).

And the GI50 (SK-MEL-5)?
The GI50 was > 100 µM (inactive).

What about the GI50 (SK-OV-3) of the same molecule?
Its GI50 is > 100 µM (inactive).

What about the GI50 (SN12C) of the same molecule?
The GI50 was > 100 µM (inactive).

What about the GI50 (SNB-19) of the same molecule?
The GI50 was > 100 µM (inactive).

And the GI50 (SNB-75)?
The GI50 was 93.1 µM (inactive).

And the GI50 (SR)?
The GI50 was > 100 µM (inactive).

And the GI50 (T47D)?
The GI50 was > 100 µM (inactive).

And the GI50 (U-251)?
The GI50 was > 100 µM (inactive).

What about the GI50 (UACC-62) of the same molecule?
The GI50 was > 10 µM (inactive).

What about the GI50 (UO-31) of the same molecule?
Its GI50 is > 100 µM (inactive).
